Experimental data reported in the supplement of paper PMC10307832.

Tests used:
Test in all cases: relative viability (nuclei count vs DMSO), 5 days (fraction); higher = more cells survive
IDH-C35 + Linsitinib = compound: Cc1ccccc1C(C(=O)NC1CCCCC1)N(C(=O)Cn1ccnc1C)c1cccc(F)c1 [IDH-C35] + C[C@]1(O)C[C@@H](c2nc(-c3ccc4ccc(-c5ccccc5)nc4c3)c3c(N)nccn32)C1 [Linsitinib] (partner 1 µM)
Procedure, shortened: (§1)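 Lung cancer cell lines were pin-tool dosed in 1536-well plates on the day after seeding, with either a lone drug or a fixed anchor-drug dose plus five library-drug doses (not always all listed) in √10 steps. Nuclei were counted on 4× images after 5 days. Relative viability is the ratio of treated-well to vehicle-well nuclei counts, with each value a median of duplicate plates.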

[1] = compound: CC1=C(C(=NN1)C)CC2=C(C3=C(S2)N(C(=O)N(C3=O)C)CC(C)C)C(=O)N4C[C@@H](CO4)O + CCNC(=O)c1noc(-c2cc(C(C)C)c(O)cc2O)c1-c1ccc(CN2CCOCC2)cc1 [Luminespib] (partner 0.01 µM)
Procedure, shortened: as §1

IDH-C35 + Trametinib = compound: Cc1ccccc1C(C(=O)NC1CCCCC1)N(C(=O)Cn1ccnc1C)c1cccc(F)c1 [IDH-C35] + CC(=O)Nc1cccc(-n2c(=O)n(C3CC3)c(=O)c3c(Nc4ccc(I)cc4F)n(C)c(=O)c(C)c32)c1 [Trametinib] (partner 0.02 µM)
Procedure, shortened: as §1

IDH-C35 + Decitabine = compound: Cc1ccccc1C(C(=O)NC1CCCCC1)N(C(=O)Cn1ccnc1C)c1cccc(F)c1 [IDH-C35] + Nc1ncn([C@H]2C[C@H](O)[C@@H](CO)O2)c(=O)n1 [Decitabine] (partner 2 µM)
Procedure, shortened: as §1

Cell Line	relative viability (IDH-C35 + Linsitinib; first compound 0.08 µM)	relative viability (IDH-C35 + Linsitinib; first compound 0.253 µM)	relative viability (IDH-C35 + Linsitinib; first compound 0.8 µM)	relative viability (IDH-C35 + Linsitinib; first compound 2.53 µM)	relative viability (IDH-C35 + Linsitinib; first compound 8 µM)	relative viability ([1]; first compound 0.0025 µM)	relative viability ([1]; first compound 0.007906 µM)	relative viability ([1]; first compound 0.025 µM)	relative viability ([1]; first compound 0.07906 µM)	relative viability ([1]; first compound 0.25 µM)	relative viability (IDH-C35 + Trametinib; first compound 0.08 µM)	relative viability (IDH-C35 + Trametinib; first compound 0.253 µM)	relative viability (IDH-C35 + Trametinib; first compound 0.8 µM)	relative viability (IDH-C35 + Trametinib; first compound 2.53 µM)	relative viability (IDH-C35 + Trametinib; first compound 8 µM)	relative viability (IDH-C35 + Decitabine; first compound 0.08 µM)	relative viability (IDH-C35 + Decitabine; first compound 0.253 µM)	relative viability (IDH-C35 + Decitabine; first compound 0.8 µM)	relative viability (IDH-C35 + Decitabine; first compound 2.53 µM)	relative viability (IDH-C35 + Decitabine; first compound 8 µM)
NCI-H1993	0.758	0.776	0.817	0.745	0.798	0.727	0.706	0.765	0.65	0.749	0.479	0.586	0.632	0.542	0.645	0.586	0.567	0.7	0.693	0.566
NCI-H2009	1.18	1.24	1.16	1.23	1.14	1.07	1.06	1.06	1.13	1.02	0.29	0.308	0.314	0.34	0.288	0.354	0.408	0.387	0.321	0.372
NCI-H2023	0.719	0.612	0.712	0.646	0.557	0.868	0.945	0.725	0.603	0.737	0.476	0.503	0.548	0.528	0.475	0.231	0.22	0.259	0.233	0.265
NCI-H2085	0.807	0.815	0.922	0.992	0.846	0.443	0.412	0.412	0.41	0.343	0.634	0.493	0.571	0.729	0.457	0.543	0.549	0.554	0.569	0.465
NCI-H2087	1.03	0.826	0.744	0.87	0.881	0.142	0.217	0.175	0.168	0.16	0.211	0.226	0.264	0.265	0.197	0.284	0.25	0.274	0.302	0.254
NCI-H2126	0.765	0.667	0.712	0.726	0.703	0.959	0.845	0.878	0.892	0.951	0.568	0.563	0.564	0.519	0.537	0.573	0.602	0.592	0.526	0.559
NCI-H2347	0.973	0.932	1.01	0.987	0.918	0.563	0.371	0.447	0.362	0.246	0.342	0.281	0.323	0.28	0.283	0.647	0.651	0.661	0.599	0.654
NCI-H2405	0.974	0.957	0.928		0.907	0.778	0.849		0.706	0.684	0.66	0.679	0.59	0.58	0.589	0.701	0.751	0.652	0.775	0.668
